Series [1] is described as follows: In vivo sensor response to riboflavin injection in SKH1-E mouse (intraperitoneal implant). Conditions: 300 μM riboflavin injected through catheter. An excerpt: FIGS. 5A-5H depict in vivo sensing. […] Scale bars are 5 mm. […] Sham stands for gels without a sensor, flipped configuration represents a mouse laying on its back with the signal passing through the full thickness of the animal body. […] The scale bar is 5 mm. […] The single laser excitation was at 730 nm. WIFF system was modulated at 2 Hz between 680, 730, and 780 nm. The emission collection was at >1100 nm.
FIGS. 32A-32B depict sensing experiments with mice. […] Five replicas on biologically independent animals. Sensors (10×10×2 mm^3 gel with 20 mg/l (AC)15-SWNTs)) were implanted into the intraperitoneal space of mice. […] The time t=0 corresponds to the time of injection.
The ultimate goal of fluorescent sensing is to detect analytes in vivo at the implantation point and wirelessly transmit the signal to the surface of the body. […] These types of measurements are critical for many biomedical problems focused on tissue permeability, such as targeted delivery of therapeutics, and changes in vascular permeability related to disorders, either as the origin or manifestation of various diseases. […]

The nature of series [2]: In vitro hydrogel dynamics: sensor response fitted to the diffusion equation. In kind it is physicochemical. Conditions: 10×10×2 mm^3 gel with 20 mg/l (AC)15-SWNTs, 100 μM riboflavin. As to the method: FIG. 33 depicts in vitro hydrogel dynamics. […] The black curve represents the measured data, while the red line is a fit to the diffusion equation, yielding a diffusion constant of 1.04×10^−6 cm^2/s.
Hydrogel preparation. The nanotube embedded hydrogels were prepared using polyethylene glycol diacrylate from Alfa Aesar using a PEG chain length of 8000 Da (PEG8000DA). The UV triggered initiator was 2-hydroxy-4′-(2-hydroxyethoxy)-2-methylpropiophenone from Sigma Aldrich and was dissolved in a stock solution of 7 mg/mL in water before polymerization. […] The hydrogel precursor solution is held under a flowing N2 atmosphere for 30 minutes to remove dissolved oxygen. After degassing, the solution is pipetted into glass molds and returned to the nitrogen atmosphere. The molds are then exposed to 365 nm UV light (UVP Blak-Ray XX-15BLB) for 45 minutes to polymerize. Afterwards, the hydrogels were removed from the molds and left to incubate in 1×PBS overnight to remove any unreacted monomer to free-floating SWNT. Then the PBS solution was exchanged to a fresh solution and the hydrogels were ready to use.
The interaction between an analyte and the hydrogel sensor is further described with analyte diffusion. The mathematical model solves the following nondimensionalized unsteady diffusion model and boundary conditions: […]

`Cc1cc2nc3c(=O)[nH]c(=O)nc-3n(C[C@H](O)[C@H](O)[C@H](O)CO)c2cc1C` [riboflavin]: the “onset time of quenching after the injection” value in series [1] is 51 s. Moreover, the sensor quenching in series [1] (intraperitoneal sensor, WIFF) was 17%. For the same compound, the “diffusion constant in the hydrogel” value in series [2] was 1.04×10^−6 cm^2/s.

(Values after patent publication US12059230B2, “Extending fluorescent assays in vivo for biomedical sensing: wavelength modulation spectroscopy” (MASSACHUSETTS INSTITUTE OF TECHNOLOGY, priority 2019, dated 2024).)
